Results from patent publication US20240309043A1, “THERAPEUTICALLY ACTIVE STEROIDAL DERIVATIVES” (Organon R&D Finland Ltd., priority 2017, published 2024).

Legend:
[1] = molecular target: T1, recombinant human 17β-HSD1 (Homo sapiens, UniProt P14061); experiment: Inhibition of recombinant human 17β-HSD1; format: biochemical; conditions: inhibitor 100 nM; 30 nM estrone, 1 mM NADPH, 30 min RT
T1 construct: made in house; host or cells: Sd9 (Sf9) insect cells, baculovirus (Bac to Bac Expression System)
T1 sequence (P14061 1-328): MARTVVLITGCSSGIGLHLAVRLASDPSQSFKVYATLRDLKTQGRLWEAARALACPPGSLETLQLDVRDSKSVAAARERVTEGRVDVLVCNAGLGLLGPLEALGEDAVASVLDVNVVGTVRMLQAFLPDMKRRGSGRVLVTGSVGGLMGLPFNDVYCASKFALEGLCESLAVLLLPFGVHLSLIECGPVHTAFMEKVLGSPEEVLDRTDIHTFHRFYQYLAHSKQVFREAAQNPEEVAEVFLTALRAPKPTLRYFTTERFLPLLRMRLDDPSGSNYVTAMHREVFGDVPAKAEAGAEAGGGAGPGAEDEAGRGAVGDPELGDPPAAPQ
Method in brief: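 Microsomes from Sf9 cells expressing human 17β-HSD1 (1 μg/ml) were incubated for 30 min at RT in 20 mM KH2PO4 pH 7.4 with 30 nM ³H-estrone, 1 mM NADPH and inhibitor at 1 μM or 0.1 μM (1% DMSO). Estrone-to-estradiol conversion was measured by radio-HPLC after TCA stop, and % inhibition was taken as 100 − % conversion.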

[2] = system: human hepatocytes; experiment: Metabolic stability assay, human hepatocyte incubations; format: in vitro ADME; conditions: 37° C., 0-60 min, half life
Procedure: The in vitro metabolic stability of the compounds of the invention was determined for exemplified compounds using human hepatocyte incubations. Study compounds were incubated 0, 10, 20, 40 and 60 min at 37° C. Samples were collected at all time points and compounds were detected by LC-MS/MS analysis. The percent compound remaining is calculated by comparing the peak area of the parent compound at each time point to time zero. In vitro metabolic stability was determined as half life (T½), which was determined by regression analysis of the percent parent disappearance vs. time curve. The results are summarized in Table2.

[3] = system: HSD1 enzyme that is expressed in rabbit placenta tissue; experiment: Inhibition of E1 to E2 conversion in rabbit placenta tissue homogenate; format: biochemical; conditions: inhibitor 100 nM, 30 nM estrone, 30 min
[4] = molecular target: T2, recombinant human 17β-HSD2 (Homo sapiens, UniProt P37059); experiment: Inhibition of recombinant human 17β-HSD2; format: biochemical; conditions: inhibitor 1 μM; 50 nM estradiol, 1 mM NADH, 30 min RT
T2 construct: made in house; host or cells: Sd9 (Sf9) insect cells, baculovirus (Bac to Bac Expression System)
T2 sequence (P37059 1-387): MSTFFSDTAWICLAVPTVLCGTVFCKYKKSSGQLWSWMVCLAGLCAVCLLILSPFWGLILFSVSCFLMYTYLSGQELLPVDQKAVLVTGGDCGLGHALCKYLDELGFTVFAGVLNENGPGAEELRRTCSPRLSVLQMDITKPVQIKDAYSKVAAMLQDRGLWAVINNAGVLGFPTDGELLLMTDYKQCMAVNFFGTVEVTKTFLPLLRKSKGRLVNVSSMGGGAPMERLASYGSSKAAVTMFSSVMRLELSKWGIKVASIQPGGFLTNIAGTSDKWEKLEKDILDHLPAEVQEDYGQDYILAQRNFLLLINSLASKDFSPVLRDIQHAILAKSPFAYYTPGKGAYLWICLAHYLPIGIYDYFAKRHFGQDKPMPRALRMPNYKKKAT
Method in brief: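 Sf9 baculovirus-expressed enzyme membrane extract (4 μg/ml) incubated 30 min at RT in 20 mM KH2PO4 pH 8.5 with 50 nM estradiol (³H-tracer) and 1 mM NADH, inhibitor at 1 μM or 0.1 μM, 1% DMSO. TCA-stopped; estradiol-to-estrone conversion by radio-HPLC, % inhibition = 100 − % conversion.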

| Structure (SMILES) | inhibition at 0.1 µM [1] [%] | Human hepatocytes MetStab T1_2 min [2] [min] | Rabbit placenta inhibition % @100 nM [3] [%] | inhibition at 1 µM [4] [%] |
| --- | --- | --- | --- | --- |
| COc1ccc(NC(=O)CC[C@@H]2C/C(=N\O)[C@@]3(C)CCC4c5ccccc5CCC4C23)nc1 (stereo partly drawn) [Compound 84] | 73 | 35 | 35 | -15 |
| COc1ccc(NC(=O)CC[C@@H]2C/C(=N\O)[C@@]3(C)CCC4c5cccc(F)c5CCC4C23)nn1 (stereo partly drawn) [Compound 4, 3-((13S,15R,E)-4-fluoro-17-(hydroxyimino)-13-methyl-7,8,9,11,12,13,14,15,16,17-decahydro-6H-cyclopenta[a]phenanthren-15-yl)-N-(6-methoxypyridazin-3-yl)propanamide] | 87 | 42 |  | 13 |
| CC(C)c1ccc(NC(=O)CC[C@@H]2C/C(=N\O)[C@@]3(C)CCC4c5cccc(F)c5CCC4C23)nc1 (stereo partly drawn) [Compound 112, 3-((13S,15R,E)-4-fluoro-17-(hydroxyimino)-13-methyl-7,8,9,11,12,13,14,15,16,17-decahydro-6H-cyclopenta[a]phenanthren-15-yl)-N-(5-isopropylpyridin-2-yl)propanamide] | 96 | 29 | 67 | 7 |
| COc1ccc(NC(=O)CC[C@@H]2C/C(=N\O)[C@@]3(C)CCC4c5cccc(F)c5CCC4C23)nc1 (stereo partly drawn) [Compound 6, 3-((13S,15R,E)-4-fluoro-17-(hydroxyimino)-13-methyl-7,8,9,11,12,13,14,15,16,17-decahydro-6H-cyclopenta[a]phenanthren-15-yl)-N-(5-methoxypyridin-2-yl)propanamide] | 92 | 67 | 79 | 1 |
| C[C@]12CCC3c4ccccc4CCC3C1[C@H](CCC(=O)Nc1ccc(F)cn1)C/C2=N\O (stereo partly drawn) [Compound 98, N-(5-fluoropyridin-2-yl)-3-((13S,15R,E)-17-(hydroxyimino)-13-methyl-7,8,9,11,12,13,14,15,16,17-decahydro-6H-cyclopenta[a]phenanthren-15-yl)propanamide] | 60 | 28 | 4 | 0 |
| Cc1cc(NC(=O)CC[C@@H]2C/C(=N\O)[C@@]3(C)CCC4c5ccccc5CCC4C23)no1 (stereo partly drawn) [Compound 110] | 33 | 26 | 35 | -4 |
| C[C@]12CCC3c4cccc(F)c4CCC3C1[C@H](CCC(=O)Nc1cccnn1)C/C2=N\O (stereo partly drawn) [Compound 20] | 80 | 17 | 50 | 0 |
| COc1ccnc(NC(=O)CC[C@@H]2C/C(=N\O)[C@@]3(C)CCC4c5ccc(Cl)cc5CCC4C23)c1 (stereo partly drawn) [Compound 56, 3-((13S,15R,E)-3-chloro-17-(hydroxyimino)-13-methyl-7,8,9,11,12,13,14,15,16,17-decahydro-6H-cyclopenta[a]phenanthren-15-yl)-N-(4-methoxypyridin-2-yl)propanamide] | 63 | 334 | 0 | 3 |
| Cc1cnc(NC(=O)CC[C@@H]2C/C(=N\O)[C@@]3(C)CCC4c5ccccc5CCC4C23)o1 (stereo partly drawn) [Compound 108, 3-((13S,15R,E)-17-(hydroxyimino)-13-methyl-7,8,9,11,12,13,14,15,16,17-decahydro-6H-cyclopenta[a]phenanthren-15-yl)-N-(5-methyloxazol-2-yl)propanamide] | 54 | 21 | 20 | 5 |
| C[C@]12CCC3c4cccc(F)c4CCC3C1[C@H](CCC(=O)Nc1ccc(F)cn1)C/C2=N\O (stereo partly drawn) [Compound 8, 3-((13S,15R,E)-4-fluoro-17-(hydroxyimino)-13-methyl-7,8,9,11,12,13,14,15,16,17-decahydro-6H-cyclopenta[a]phenanthren-15-yl)-N-(5-fluoropyridin-2-yl)propanamide] | 90 | 52 | 37 | 2 |
| C[C@]12CCC3c4ccc(Cl)cc4CCC3C1[C@H](CCC(=O)Nc1ncc(F)cc1F)C/C2=N\O (stereo partly drawn) [Compound 164, 3-((13S,15R,E)-3-chloro-17-(hydroxyimino)-13-methyl-7,8,9,11,12,13,14,15,16,17-decahydro-6H-cyclopenta[a]phenanthren-15-yl)-N-(3,5-difluoropyridin-2-yl)propanamide] | 40 |  | 5 | 11 |
| C[C@]12CCC3c4cccc(F)c4CCC3C1[C@H](CCC(=O)Nc1cc(F)ccn1)C/C2=N\O (stereo partly drawn) [Compound 140, 3-((13S,15R,E)-4-fluoro-17-(hydroxyimino)-13-methyl-7,8,9,11,12,13,14,15,16,17-decahydro-6H-cyclopenta[a]phenanthren-15-yl)-N-(4-fluoropyridin-2-yl)propanamide] | 86 |  | 24 | 6 |
| CN(C(=O)CC[C@@H]1C/C(=N\O)[C@@]2(C)CCC3c4ccc(F)cc4CCC3C12)C1COC1 (stereo partly drawn) [Compound 36, 3-((13S,15R,E)-3-fluoro-17-(hydroxyimino)-13-methyl-7,8,9,11,12,13,14,15,16,17-decahydro-6H-cyclopenta[a]phenanthren-15-yl)-N-methyl-N-(oxetan-3-yl)propanamide] | 33 |  | 12 | 10 |
| CN(C)C(=O)CC[C@@H]1C/C(=N\O)[C@@]2(C)CCC3c4cccc(F)c4CCC3C12 (stereo partly drawn) [Compound 120, 3-((13S,15R,E)-4-fluoro-17-(hydroxyimino)-13-methyl-7,8,9,11,12,13,14,15,16,17-decahydro-6H-cyclopenta[a]phenanthren-15-yl)-N,N-dimethylpropanamide] | 57 |  | 9 | 2 |
| C[C@]12CCC3c4ccc(Cl)cc4CCC3C1[C@H](CCC(=O)Nc1cc3c([nH]c1=O)CCCC3)C/C2=N\O (stereo partly drawn) [Compound 174, 3-((13S,15R,E)-3-chloro-17-(hydroxyimino)-13-methyl-7,8,9,11,12,13,14,15,16,17-decahydro-6H-cyclopenta[a]phenanthren-15-yl)-N-(2-oxo-1,2,5,6,7,8-hexahydroquinolin-3-yl)propanamide] | 84 |  | 10 | 12 |
| C[C@]12CCC3c4ccc(F)cc4CCC3C1[C@H](CCC(=O)Nc1ncccc1F)C/C2=N\O (stereo partly drawn) [Compound 150a, 3-((13S,15R,E)-3-fluoro-17-(hydroxyimino)-13-methyl-7,8,9,11,12,13,14,15,16,17-decahydro-6H-cyclopenta[a]phenanthren-15-yl)-N-(3-fluoropyridin-2-yl)propanamide] | 74 |  | 10 | 0 |
| COc1ccc(NC(=O)CC[C@@H]2C/C(=N\O)[C@@]3(C)CCC4c5ccc(F)cc5CCC4C23)nc1 (stereo partly drawn) [Compound 28, 3-((13S,15R,E)-3-fluoro-17-(hydroxyimino)-13-methyl-7,8,9,11,12,13,14,15,16,17-decahydro-6H-cyclopenta[a]phenanthren-15-yl)-N-(5-methoxypyridin-2-yl)propanamide] | 74 |  | 48 | 7 |
